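Compound exposure: 48 hours, 5 concentrations, 96-well plates. GI50 is the concentration that inhibits growth by half.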 Active and inactive are the calls of the source. No stated cut-off is given here; in the data, active = GI50 up to about 1.1 µM and inactive = higher. Non-standard residues stand in square brackets, D forms with d. Residues, ends and D or L forms follow the SMILES beside them. ξ: configuration not given here. ξLac(3-iPr) = CC(C)CC(O)C(=O)O; NMeV = CN[CH](C(=O)O)C(C)C; NMeA = CN[CH](C)C(=O)O; βAla = NCCC(=O)O
Experiments:
Assay in all cases: NCI-60 cell line screen, 48 h
[1] = system: 786-0
[2] = system: CCRF-CEM
[3] = system: DLD-1
[4] = system: HCC 2998
[5] = system: LOX IMVI
[6] = system: M19-MEL
[7] = system: NCI-H226
[8] = system: SF-539
[9] = system: SK-MEL-28
[10] = system: SK-MEL-5
[11] = system: SR
[12] = system: TK-10
[13] = system: UACC-62
[14] = system: XF498
[15] = system: CAKI-1
[16] = system: DMS-114
[17] = system: MCF7
[18] = system: NCI/ADR-RES
[19] = system: DU-145
[20] = system: Hs-578T

Measured: GI50

Cc1cc(C)nc(NS(=O)(=O)c2ccc(NC(=O)c3cccn4c(=O)c5ccccc5nc34)cc2)n1
inactive: [1] > 100 µM | [2] 27.5 µM | [3] 31.9 µM | [4] > 100 µM | [5] 29.1 µM | [6] 31.6 µM | [7] 37.6 µM | [8] 38.5 µM | [9] 38.5 µM | [10] 37.9 µM | [11] 24 µM | [12] > 100 µM | [13] 20.5 µM | [14] 54.2 µM

COc1cc(/C=C/c2ccc(OC)c(OC)c2)oc(=O)c1
inactive: [15] > 92.3 µM | [2] > 194 µM | [3] > 250 µM | [16] > 182 µM | [4] > 250 µM | [5] > 250 µM | [6] > 250 µM | [17] > 250 µM | [7] > 250 µM | [18] > 250 µM | [8] 213 µM | [9] > 250 µM | [10] > 250 µM | [13] 247 µM | [14] > 250 µM

CCCCN1CN2C(=O)C(C(=O)OCC)C(=O)c3sc4nc(SC)nc1c4c32 (centres undefined)
active: [20] < 0.01 µM
inactive: [15] 17.3 µM | [2] 34 µM | [19] 19 µM | [5] 20.5 µM | [17] 21 µM | [7] 19 µM | [18] 19 µM | [8] 18.5 µM | [9] 19.8 µM | [10] 12.3 µM | [11] 33.1 µM | [12] 14.9 µM | [13] 17.7 µM

CCOC(=O)C1=C(C)N2CCCOC2(C)C(C(=O)OC)C1c1cccc([N+](=O)[O-])c1 (centres undefined)
inactive: [15] 64.9 µM | [2] 76.6 µM | [16] 44.8 µM | [4] > 100 µM | [6] > 100 µM | [7] > 100 µM | [8] > 100 µM | [9] > 100 µM | [10] 39.6 µM | [11] 35.2 µM | [12] > 100 µM | [13] 45.6 µM

c1cc2c(c(-c3c4ccccc4nc4ccccc34)c1)CC1(CC2)OCCO1
inactive: [1] > 100 µM | [15] > 100 µM | [4] > 100 µM | [5] > 100 µM | [17] > 100 µM | [7] > 100 µM | [18] > 100 µM | [8] > 100 µM | [9] > 100 µM | [10] > 100 µM | [12] > 100 µM

CCOC(=O)c1ccc(C)c(/N=N/N(C)C)c1
inactive: [1] > 100 µM | [15] > 100 µM | [2] > 100 µM | [3] > 100 µM | [16] > 100 µM | [4] > 100 µM | [5] > 100 µM | [6] > 100 µM | [7] > 100 µM | [8] > 100 µM | [9] > 100 µM | [10] > 100 µM | [11] 93.1 µM | [12] > 100 µM | [13] > 100 µM | [14] > 100 µM

CCOC1=C2N=C(C(CC)c3ccc(F)cc3)N=C2C(=O)c2ccccc21 (centres undefined)
inactive: [1] 29.9 µM | [15] 22 µM | [2] 40 µM | [3] 7.55 µM | [16] 22.4 µM | [4] 29.9 µM | [5] 16.2 µM | [6] 24 µM | [7] 16 µM | [8] 16.3 µM | [9] 36.5 µM | [10] 13.9 µM | [11] 21.3 µM | [12] 22 µM | [13] 10.9 µM | [14] 17.5 µM

COC(=O)CC(=O)OC
inactive: [1] > 100 µM | [15] > 100 µM | [2] > 100 µM | [3] > 100 µM | [16] > 100 µM | [4] > 100 µM | [5] > 100 µM | [6] > 100 µM | [8] > 100 µM | [10] > 100 µM | [12] > 100 µM | [13] > 100 µM | [14] > 100 µM

CCCCNS(=O)(=O)c1n[nH]c(=O)[nH]c1=O
inactive: [1] > 100 µM | [15] > 100 µM | [2] 14.1 µM | [19] > 100 µM | [20] > 100 µM | [5] > 100 µM | [17] > 100 µM | [7] > 100 µM | [18] > 100 µM | [8] > 100 µM | [9] > 100 µM | [10] > 100 µM | [11] > 100 µM | [13] > 100 µM

COc1cccc(N2C(Cl)C(=O)C2c2c[nH]c3ccccc23)c1 (centres undefined)
inactive: [2] > 100 µM | [16] > 100 µM | [6] > 100 µM | [9] > 100 µM | [10] > 100 µM | [11] > 100 µM | [12] > 100 µM | [13] > 100 µM | [14] > 100 µM

CC(C)NC(=O)OCc1c(CO)c2c(n1C)-c1ccccc1CC2
inactive: [15] 15.8 µM | [2] 12.6 µM | [3] 20.7 µM | [16] 18.7 µM | [4] 19.9 µM | [5] 25.4 µM | [6] 23.9 µM | [17] 37.6 µM | [7] 21.7 µM | [18] 24.5 µM | [8] 23.6 µM | [9] 25.9 µM | [10] 27.2 µM | [13] 18.3 µM | [14] 14.2 µM

CC1Cc2cc(O)c(O)cc2-c2cc(O)c(O)cc2CC1C (centres undefined)
inactive: [1] 14.3 µM | [15] 17.8 µM | [2] 14.1 µM | [19] 36.3 µM | [4] 17.4 µM | [20] 9.04 µM | [5] 10.2 µM | [17] 12.1 µM | [7] 24.3 µM | [18] 12.6 µM | [8] 5.85 µM | [9] 11.9 µM | [10] 4.81 µM | [11] 4.85 µM | [12] 26.4 µM | [13] 6.07 µM

COc1ccc(CN/C=N/C(C#N)=C(\N)C#N)cc1OC
inactive: [1] > 100 µM | [15] > 100 µM | [2] > 100 µM | [19] > 100 µM | [4] > 100 µM | [20] > 100 µM | [5] > 100 µM | [17] > 100 µM | [7] > 100 µM | [18] > 100 µM | [8] > 100 µM | [9] > 100 µM | [10] > 100 µM | [11] > 100 µM | [12] > 100 µM | [13] > 100 µM

Cc1ccc(S(=O)(=O)NC(=N)N(C)N=O)cc1
inactive: [1] > 100 µM | [15] > 100 µM | [2] > 100 µM | [19] > 100 µM | [20] > 100 µM | [5] > 100 µM | [17] > 100 µM | [7] > 100 µM | [18] > 100 µM | [8] > 100 µM | [9] > 100 µM | [11] > 100 µM | [12] > 100 µM | [13] 26.4 µM

Cc1ccc(C2COc3cc(O)c(O)cc3C2)cc1 (centres undefined)
inactive: [15] 15.9 µM | [2] 1.82 µM | [3] 17.5 µM | [16] 12.7 µM | [4] 35.1 µM | [5] 12.1 µM | [6] 19 µM | [17] 25.9 µM | [7] 45.2 µM | [18] 15.7 µM | [8] 22.4 µM | [9] 13.1 µM | [10] 18.9 µM | [13] 18.5 µM | [14] 9.12 µM

CN(C)CC(C)(C)/C(=N\Nc1ccccc1)c1ccccc1
inactive: [1] 45.3 µM | [2] 29.7 µM | [3] 30.4 µM | [16] 46.7 µM | [5] 14.6 µM | [6] 82.2 µM | [8] 24.6 µM | [9] 39.9 µM | [10] 70 µM | [12] 22.7 µM | [13] 14.8 µM

Cc1cccc2ns[s+]c12
inactive: [15] > 100 µM | [2] 33.3 µM | [3] > 100 µM | [16] 20.5 µM | [4] > 100 µM | [7] > 100 µM | [8] 50.7 µM | [9] > 100 µM | [10] 89.7 µM | [12] > 100 µM | [13] 38.5 µM

C[n+]1c2ccccc2c(NC(CS)C(=O)O)c2ccccc21 (centres undefined)
inactive: [1] 24 µM | [15] 28.5 µM | [3] 23.1 µM | [16] 29.2 µM | [4] 32.9 µM | [6] 27.4 µM | [7] 45 µM | [8] 20.7 µM | [10] 17.3 µM | [11] 16.4 µM | [12] 36.6 µM | [13] 15.2 µM | [14] 18.4 µM

NC1=NC(=O)[C@H](Cc2c[nH]c3ccccc23)N1C(=O)OCc1ccccc1
active: [9] < 0.01 µM
inactive: [1] > 100 µM | [15] > 100 µM | [19] 93.8 µM | [4] > 100 µM | [20] 44.9 µM | [5] 68.5 µM | [17] 81.8 µM | [7] 84.5 µM | [18] > 100 µM | [10] 40.3 µM | [12] > 100 µM | [13] 53.8 µM

CCC(C)C1NC(=O)C2CCCN2C(=O)C(CC(C)C)OC(=O)CCNC(=O)C(C)N(C)C(=O)C(C(C)C)N(C)C1=O (centres undefined) (cyclo([ξLac(3-iPr)]PI[NMeV][NMeA][βAla]); configuration not given here)
inactive: [1] 2.09 µM | [15] 6.95 µM | [19] 4.05 µM | [4] 2.13 µM | [20] 23.2 µM | [17] 2.64 µM | [7] > 21.5 µM | [18] 16.1 µM | [8] 7.1 µM | [9] 36.1 µM | [10] 1.21 µM | [12] 23.2 µM | [13] 2.21 µM
active: [2] 0.736 µM | [5] 1.11 µM | [11] 0.766 µM

Source: ChEMBL document CHEMBL1201862, “PubChem BioAssay data set” (2004)
